According to patent publication US7217729B2, “Substituted indoles, process for the production thereof and use thereof for combatting pain” (Grunenthal GmbH, priority 2001, dated 2007):

Tested on: Male NMRI mice
Experiment: phenylquinone-induced writhing in mice (analgesic testing by writhing test)
Type: in vivo
Settings: 10 mg/kg i.v., phenylquinone i.p. 10 minutes after compound, writhing counted 5–20 minutes after phenylquinone
Procedure: The investigation into the analgesic efficacy of the compounds according to the invention was performed by phenylquinone-induced writhing in mice, modified after I. C. Hendershot, J. Forsaith, J. Pharmacol. Exp. There. 125, 237240 (1959). The corresponding literature description is hereby introduced as a reference and is deemed to be part of the disclosure.
Male NMRI mice weighing from 25–30 g were used for this purpose. Groups of 10 animals per compound dose received, 10 minutes after intravenous administration of the compounds tested, 0.3 ml/mouse of a 0.02% aqueous solution of phenylquinone (phenylbenzoquinone, Sigma, Deisenhofen; solution prepared with addition of 5% of ethanol and stored in a water bath at 45° C.) administered intraperitoneally. The animals were then placed individually in observation cages. A push button counter was used to record the number of pain-induced stretching movements (writhing reactions=straightening of the torso with stretching of the rear extremities) for 5–20 minutes after phenylquinone administration. The control was provided by animals which received only physiological common salt solution with phenylquinone.
The compounds according to the invention were tested at the standard dosage of 10 mg/kg. The percentage inhibition (% inhibition) of the writhing reactions by a compound was calculated according to the following formula: […]
Analgesic Testing by Writhing Test in Mice
The in-depth investigation into the analgesic efficacy of the compounds according to the invention was performed using phenylquinone-induced writhing in mice, as described above.

Row | Molecule | % inhibition of writhing reactions [%]
1 | 5-Chloro-3-{[3′-(N,N-dimethylaminomethyl)-4′-hydroxy-4′-(3″-methoxyphenyl)-cyclohexylamino]-methyl}-1H-indole 2-carboxylic acid ester [Compound 1] | 48
2 | CCOC(=O)c1[nH]c2cc(Cl)cc(Cl)c2c1CNC1CCC(O)(c2cccc(OC)c2)C(CN(C)C)C1 (stereo not shown) [Compound 2, 4,6-Dichloro-3-{[3′-(N,N-dimethylaminomethyl)-4′-hydroxy-4′-(3″-methoxyphenyl)-cyclohexylamino]-methyl}-1H-indole 2-carboxylic acid ethyl ester] | 97
3 | COc1cccc(C2(O)CCC(NCc3c(C(=O)O)[nH]c4cc(Cl)cc(Cl)c34)CC2CN(C)C)c1 (stereo not shown) [Compound 3, 4,6-Dichloro-3-{[3′-(N,N-dimethylaminomethyl)-4′-hydroxy-4′-(3″-methoxyphenyl)-cyclohexylamino]-methyl}-1H-indole 2-carboxylic acid] | 72
4 | CCOC(=O)c1c(CNC2CCC(O)(c3cccc(OC)c3)C(CN(C)C)C2)c2c(Cl)cc(Cl)cc2n1C(=O)OC(C)(C)C (stereo not shown) [Compound 4] | 100
